The nature of data set [1]: Liver microsome stability assay. Type of data set: in vitro ADME, mouse. The settings on record: pH 7.4; for remaining at 1 h, 1 µM: male, CD-1, pooled liver microsomes, Mouse liver microsomes, without NADPH, 60 min, read-out: Stability minus NADPH % Remaining @ 60 min; for half-life at 1 µM: pooled liver microsomes, Mouse (CD-1, male) liver microsomes. How it is done:
(§1) Assays were conducted in 96-deep well polypropylene plates. In duplicate, test compounds (1 µM) were incubated in 0.5 mL of 100 mM potassium phosphate buffer (pH 7.4), with 0.5 mg/ml pooled liver microsomes (Life Technologies: CD-1 male mice # MSMCPL; SD male rat # RTMCPL; mixed gender human # HMMCPL. BD Genetest male beagle dog; # 452,601; male marmoset # 452,340), 2 mM tetra sodium NADPH, and 3 mM MgCl2, for 60 min in a Labnet® Vortemp incubator at 37 °C, with gentle shaking. At five time points, 75 µL of reaction mixtures were transferred on ice to a 96-shallow well stop plate containing 225 µL acetonitrile with 0.1 µM propafenone. […] Standard curves for test compounds were generated using 5 concentrations (in duplicate) that were processed as above but with no incubation time. Stop plates were centrifuged at 2000xg for 10 min in a Sorvall ST 16 centrifuge, and 170 µL of the supernatants transferred to a Waters® Aquity UPLC (Ultra Performance Liquid Chromatography) 700 µL 96-well sample plate with cap mat. A Waters® Aquity UPLC BEH C18 1.7 µM, 2.1 × 50 mm column, at 40 °C, was used to fractionate 5 µL samples, using a 3 min linear 5 to 95% acetonitrile gradient in 0.1% formic acid with a 0.75 mL/min flow rate. In tandem with UPLC, compound concentrations were analyzed using a Waters® TQ MS mass spectrometer in electrospray-positive mode (source temperature 150 °C; desolvation temperature 450 °C; desolvation flow rate of 900 L/hr). Cone voltages, collision energies, and quantitation were optimized and determined using Waters® QuanOptimize software, with propafenone as an internal standard. MC180379:CV 34; CE 34; mrm 359.15 > 114.91; MC180390 CV 34; CE 28; mrm 359.15 > 114.92. GraphPad® Prism v 5.04 was used for nonlinear fitting of time course data to generate t1/2 and CLint (intrinsic clearance) values.
On the technique in general: Liver microsomes are vesicles of endoplasmic reticulum, rich in cytochrome P450 enzymes.

A short description of data set [2]: Liver microsome stability assay. The data set is classed as in vitro ADME, dog. The settings on record: pooled liver microsomes, pH 7.4; for remaining at 1 h, 1 µM: male, beagle, Dog liver microsomes, without NADPH, 60 min, read-out: Stability minus NADPH % Remaining @ 60 min; for half-life at 1 µM: Dog (beagle, male) liver microsomes. How it is done:
as §1, with “BD Genetest male beagle dog; # 452,601; male marmoset # 452,340), 2 mM tetra sodium NADPH, and 3 mM MgCl2, for 60 min in a Labnet® Vortemp incubator at 37 °C, with gentle shaking.” left out

The nature of data set [3]: Liver microsome stability assay. Type of data set: in vitro ADME. The following applies: pooled liver microsomes, pH 7.4, Cynomologous Monkey liver microsomes; for half-life at 1 µM: cynomolgus monkey; for remaining at 1 h, 1 µM: without NADPH, 60 min, read-out: Stability minus NADPH % Remaining @ 60 min.
In data set [4] the target is CDK9/cyclin T (Homo sapiens, UniProt P50750). As to the kind of experiment: CDK9/cyclin T inhibition, two independent assays. The data set is classed as biochemical. How it is done:
CDK enzymatic assays were performed by Reaction Biology Corp. (Malvern, PA), using 10 µM ATP for determining MC180295 IC50 values for each CDK family member for which assays were available. Kinase enzymatic assays were also performed by Nanosyn (Santa Clara, CA), using microfluidic technology and MC180295 IC50 curves against 10 CDKs. Selectivity against CDK9 was confirmed for the enantiomers at Reaction Biology Corp. (Malvern, PA).

For data set [5], the system named is 451LU. As to the kind of experiment: Growth inhibition (cell counting, day 5). The data set is classed as cell-based. The following applies: Melanoma. How it is done:
(§2) The live-cell assay for GFP reactivation in YB5 cells was done as previously described. Cells were treated with a single dose of drug 24 h after seeding at low density, and GFP fluorescence measured in a Millipore Guava flow cytometer (EMD, Millipore) instrument, or by imaging in a Cytation instrument (Agilent). Cancer cell lines (listed in Additional file 1: Fig. S1A) were obtained from ATCC or the Temple/Fox Chase Cellular Repository and cultured in the recommended medium. To measure growth inhibition, cells were seeded in 96-well plates at 40% confluency. Fresh medium was changed the next day and drugs were added directly. Drug-free fresh medium was changed on the fourth day. The cells were collected on day 5 by trypsin, suspended in medium, mixed with trypan blue (Thermo Fisher Scientific) (1:1 ratio), and counted using a LUNA II automated cell counter. Each sample was counted at least three times, and average numbers used for the analysis. Each treatment condition was performed in biological triplicates.

The test system of data set [6] is HL-60. As to the kind of experiment: Growth inhibition (cell counting, day 5). The data set is classed as cell-based. The settings on record: Homo sapiens, Leukemia. The method, then: as §2
Data set [7] has as its system KG-1. As to the kind of experiment: Growth inhibition (cell counting, day 5). Type of data set: cell-based. The settings on record: Homo sapiens, Leukemia. How it is done:
as §2

In data set [8] the test system is KM12. As to the kind of experiment: Growth inhibition (cell counting, day 5). The data set is classed as cell-based. The following applies: Homo sapiens, Colon. How it is done: as §2
In data set [9] the test system is PC3. As to the kind of experiment: Growth inhibition (cell counting, day 5). The following applies: Homo sapiens, PC-3; Prostate. Type of data set: cell-based. How it is done:
as §2

For data set [10], the system named is RKO. Kind of data set: Growth inhibition (cell counting, day 5). The following applies: Homo sapiens, Colon. The data set is classed as cell-based. How it is done:
as §2

Data set [11] relates to SKBR3. Kind of data set: Growth inhibition (cell counting, day 5). Type of data set: cell-based. The following applies: Homo sapiens, SK-BR-3; Breast. How it is done:
as §2

The subject of data set [12] is WM88. As to the kind of experiment: Growth inhibition (cell counting, day 5). The data set is classed as cell-based. The settings on record: Melanoma. The method, then: as §2
Data set [13] deals with WM983B. As to the kind of experiment: Growth inhibition (cell counting, day 5). The data set is classed as cell-based. The following applies: Melanoma. The method, then:
as §2

pIC50: −log10 of the molar value. Where two headings read alike, the source gives them in different places.

CDK9/cyclin T, sequence (O60563 whole entry): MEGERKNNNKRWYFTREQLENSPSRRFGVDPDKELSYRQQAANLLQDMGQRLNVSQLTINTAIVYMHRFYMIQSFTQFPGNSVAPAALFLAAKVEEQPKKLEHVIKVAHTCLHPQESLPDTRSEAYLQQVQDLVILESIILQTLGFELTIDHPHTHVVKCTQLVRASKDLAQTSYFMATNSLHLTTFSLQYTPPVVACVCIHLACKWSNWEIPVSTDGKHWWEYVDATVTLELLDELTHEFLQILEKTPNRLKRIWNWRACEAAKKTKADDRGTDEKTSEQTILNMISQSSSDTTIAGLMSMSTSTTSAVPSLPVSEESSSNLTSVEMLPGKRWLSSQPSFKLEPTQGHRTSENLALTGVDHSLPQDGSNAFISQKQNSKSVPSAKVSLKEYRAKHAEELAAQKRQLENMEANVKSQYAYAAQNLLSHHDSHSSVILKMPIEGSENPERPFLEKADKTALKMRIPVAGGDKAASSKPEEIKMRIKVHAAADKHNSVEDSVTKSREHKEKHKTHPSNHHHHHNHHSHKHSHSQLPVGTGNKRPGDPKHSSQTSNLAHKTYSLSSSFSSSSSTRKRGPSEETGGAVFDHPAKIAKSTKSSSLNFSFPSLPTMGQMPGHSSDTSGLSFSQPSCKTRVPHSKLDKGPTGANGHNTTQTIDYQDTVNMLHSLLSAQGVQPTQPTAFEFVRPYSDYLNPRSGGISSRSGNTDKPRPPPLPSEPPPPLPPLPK
CDK9/cyclin T, sequence (P50750 whole entry): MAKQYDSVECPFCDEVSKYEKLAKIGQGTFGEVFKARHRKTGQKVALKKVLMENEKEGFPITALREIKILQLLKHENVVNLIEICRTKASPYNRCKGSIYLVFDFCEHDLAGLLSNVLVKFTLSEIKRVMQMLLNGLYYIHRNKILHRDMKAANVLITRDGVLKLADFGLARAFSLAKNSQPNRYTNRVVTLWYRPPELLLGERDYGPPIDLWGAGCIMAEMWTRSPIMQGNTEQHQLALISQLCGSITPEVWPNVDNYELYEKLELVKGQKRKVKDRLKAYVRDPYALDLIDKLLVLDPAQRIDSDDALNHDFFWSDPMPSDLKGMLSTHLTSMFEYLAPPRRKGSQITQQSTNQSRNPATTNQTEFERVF

Take `Nc1nc(N[C@@H]2C[C@H]3CC[C@@H]2C3)sc1C(=O)c1ccccc1[N+](=O)[O-]` [MC180379]: the amount remaining (in general, what is left of the initial amount, in per cent) at 1 h, 1 µM worked out at 86% in data set [1], 88% in data set [2] and 73% in data set [3]. The half-life (in general, the time in which the quantity being followed falls by half) at 1 µM amounted to 3.2 min in data set [1], 36.2 min in data set [2] and 0.8 min in [3].

For `Nc1nc(N[C@H]2C[C@@H]3CC[C@H]2C3)sc1C(=O)c1ccccc1[N+](=O)[O-]` (relative stereo) [MC180295], in [4], the “selectivity for CDK9, compared to other CDKs” value is 20 fold. Further, the pIC50 in data set [4] (based on two independent assays, read-out: IC50 toward CDK9/cyclin T) was 7.92 to 8.52; in data set [5] it was 6.96; in [6], 6.92; in data set [7], 6.83; in data set [8], 6.99; in data set [9] it was 6.67. The pIC50 in [10] was 7.11; in data set [11], 6.91; in [12], 6.99; in data set [13] it was 6.60.

Regarding `Nc1nc(N[C@H]2C[C@@H]3CC[C@H]2C3)sc1C(=O)c1ccccc1[N+](=O)[O-]` [MC180380], the share remaining at 1 h, 1 µM in [1] came out at 88%; in data set [2], 88%; in [3] it was 51%. Besides, the half-life at 1 µM in [1] came to 7.1 min; in [2], 52.5 min; in data set [3], 1.5 min.

The record behind these values is publication PMC10765884, “MC180295 is a highly potent and selective CDK9 inhibitor with preclinical in vitro and in vivo efficacy in cancer” (Clinical Epigenetics, 2024).
